Measurements from patent publication US20090311344A1, “Dosing Regimen” (priority 2008, published 2009).

Assay: Multiple dose study in cancer subjects: treatment-emergent (serious) adverse events
Settings: n of N = 12
Protocol: 46 subjects with cancer receiving platinum-based therapies were enrolled into 3 cohorts (N=16 in Cohort 1, 14 in Cohort 2, and 16 in Cohort 3). The subjects received the TPO mimetic peptide compound or placebo within 2 hours prior to the platinum-based chemotherapy on Day 1 of the first 2 cycles with a 21-day interval between each cycle. In addition to the Day 1 administration, gemcitabine administration was permitted on Day 8 of each cycle. Other chemotherapy medications were limited to dosing on Day 1 of each cycle only. Subjects were followed up for a total of 4 cycles of chemotherapy. Chemotherapy regimen continued beyond the first 4 cycles as per standard of care therapy. In the first cohort, 12 subjects received 1.5 μg/kg the TPO mimetic peptide compound and 4 subjects received placebo. In the second cohort 10 subjects received 3.0 μg/kg the TPO mimetic peptide compound and 4 subjects received placebo. In the third cohort, 12 subjects received 2.25 μg/kg the TPO mimetic peptide compound and 4 subjects received placebo. […] Therefore, a third cohort at a lower dose (2.25 μg/kg) was added to collect additional safety, tolerability, PD, and PK data.

Substance: Methoxypolyethyleneglycol20000-propionyl-L-Isoleucyl-L-Glutamyl-Glycyl-L-Prolyl-L-Threonyl-L-Leucyl-L-Arginyl-L-Glutaminyl-L-2-Naphthylalanyl-L-Leucyl-L-Alanyl-L-Alanyl-L-Arginyl-Sarcosyl-Ne-(methoxypolyethyleneglycol20000-propionyl-L-Isoleucyl-L-Glutamyl-Glycyl-L-Prolyl-L-Threonyl-L-Leucyl-L-Arginyl-L-Glutaminyl-L-2-Naphthylalanyl-L-Leucyl-L-Alanyl-L-Alanyl-L-Arginyl-Sarcosyl-)-Lysinamide [TPO mimetic peptide compound]
- Adverse event: Abdominal pain (1.5 ug/kg): 2
- Adverse event: Acute myocardial infarction (1.5 ug/kg): 1
- Adverse event: Alanine aminotransferase increased (1.5 ug/kg): 0
- Adverse event: Alopecia (1.5 ug/kg): 2
- Adverse event: Anemia (1.5 ug/kg): 7
- Adverse event: Anorexia (1.5 ug/kg): 5
- Adverse event: Anxiety (1.5 ug/kg): 1
- Adverse event: Arthralgia (1.5 ug/kg): 0
- Adverse event: Aspartate aminotransferase increased (1.5 ug/kg): 0
- Adverse event: Atrial fibrillation (1.5 ug/kg): 1
- Adverse event: Azotaemia (1.5 ug/kg): 0
- Adverse event: Blood and lymphatic system disorders (1.5 ug/kg): 8
- Adverse event: Blood creatinine increased (1.5 ug/kg): 1
- Adverse event: C-reactive protein increased (1.5 ug/kg): 0
- Adverse event: Cancer pain (1.5 ug/kg): 1
- Adverse event: Cardiac disorders (1.5 ug/kg): 3
- Adverse event: Cardiac failure (1.5 ug/kg): 1
- Adverse event: Chills (1.5 ug/kg): 0
- Adverse event: Confusional state (1.5 ug/kg): 0
- Adverse event: Constipation (1.5 ug/kg): 3
- Adverse event: Cough (1.5 ug/kg): 0
- Adverse event: Dehydration (1.5 ug/kg): 0
- Adverse event: Dermatitis acneiform (1.5 ug/kg): 0
- Adverse event: Diabetes mellitus non-insulin-dependent (1.5 ug/kg): 1
- Adverse event: Diarrhea (1.5 ug/kg): 2
- Adverse event: Dizziness (1.5 ug/kg): 0
- Adverse event: Dry skin (1.5 ug/kg): 0
- Adverse event: Dyspepsia (1.5 ug/kg): 0
- Adverse event: Dyspnoea (1.5 ug/kg): 1
- Adverse event: Ear and labyrinth disorders (1.5 ug/kg): 0
- Adverse event: Epistaxis (1.5 ug/kg): 0
- Adverse event: Eructation (1.5 ug/kg): 0
- Adverse event: Fatigue (1.5 ug/kg): 5
- Adverse event: Febrile neutropenia (1.5 ug/kg): 0
- Adverse event: Folliculitis (1.5 ug/kg): 1
- Adverse event: Gastrointestinal disorders (1.5 ug/kg): 7
- Adverse event: General disorders and administration site conditions (1.5 ug/kg): 7
- Adverse event: General physical health deterioration (1.5 ug/kg): 0
- Adverse event: Haematocrit decreased (1.5 ug/kg): 0
- Adverse event: Headache (1.5 ug/kg): 1
- Adverse event: Hemorrhoids (1.5 ug/kg): 1
- Adverse event: Hepatobiliary disorders (1.5 ug/kg): 0
- Adverse event: Hiccups (1.5 ug/kg): 1
- Adverse event: Hyperbilirubinaemia (1.5 ug/kg): 0
- Adverse event: Hypersensitivity (1.5 ug/kg): 0
- Adverse event: Hypertension (1.5 ug/kg): 0
- Adverse event: Hypoalbuminaemia (1.5 ug/kg): 0
- Adverse event: Hypocalcaemia (1.5 ug/kg): 1
- Adverse event: Hypokalaemia (1.5 ug/kg): 0
- Adverse event: Hypomagnesaemia (1.5 ug/kg): 0
- Adverse event: Hyponatraemia (1.5 ug/kg): 0
- Adverse event: Hypophosphataemia (1.5 ug/kg): 1
- Adverse event: Immune system disorders (1.5 ug/kg): 0
- Adverse event: Insomnia (1.5 ug/kg): 0
- Adverse event: Investigations (1.5 ug/kg): 3
- Adverse event: Leukocytosis (1.5 ug/kg): 0
- Adverse event: Leukopenia (1.5 ug/kg): 2
- Adverse event: Lung abscess (1.5 ug/kg): 1
- Adverse event: Lymphopenia (1.5 ug/kg): 2
- Adverse event: Metabolism and nutrition disorders (1.5 ug/kg): 5
- Adverse event: Mucosal inflammation (1.5 ug/kg): 0
- Adverse event: Musculoskeletal and connective tissue disorders (1.5 ug/kg): 0
- Adverse event: Nausea (1.5 ug/kg): 6
- Adverse event: Neoplasms benign, malignant and unspecified (incl cysts and polyps) (1.5 ug/kg): 1
- Adverse event: Nervous system disorders (1.5 ug/kg): 3
- Adverse event: Neuropathy peripheral (1.5 ug/kg): 1
- Adverse event: Neutropenia (1.5 ug/kg): 3
- Adverse event: Oedema (1.5 ug/kg): 0
- Adverse event: Oedema peripheral (1.5 ug/kg): 1
- Adverse event: Pain (1.5 ug/kg): 3
- Adverse event: Pain in extremity (1.5 ug/kg): 0
- Adverse event: Paraesthesia (1.5 ug/kg): 0
- Adverse event: Peripheral motor neuropathy (1.5 ug/kg): 1
- Adverse event: Peripheral sensory neuropathy (1.5 ug/kg): 0
- Adverse event: Platelet count decreased (1.5 ug/kg): 1
- Adverse event: Psychiatric disorders (1.5 ug/kg): 1
- Adverse event: Pyrexia (1.5 ug/kg): 1
- Adverse event: Rash (1.5 ug/kg): 2
- Adverse event: Renal and urinary disorders (1.5 ug/kg): 0
- Adverse event: Respiratory failure (1.5 ug/kg): 1
- Adverse event: Respiratory, thoracic and mediastinal disorders (1.5 ug/kg): 2
- Adverse event: Skin and subcutaneous tissue disorders (1.5 ug/kg): 4
- Adverse event: Stomatitis (1.5 ug/kg): 2
- Adverse event: Tachycardia (1.5 ug/kg): 2
- Adverse event: Thrombocythaemia (1.5 ug/kg): 1
- Adverse event: Thrombocytopenia (1.5 ug/kg): 3
- Adverse event: Tinnitus (1.5 ug/kg): 0
- Adverse event: Vascular disorders (1.5 ug/kg): 0
- Adverse event: Vomiting (1.5 ug/kg): 2
- Adverse event: Weight decreased (1.5 ug/kg): 1
- Serious adverse event: Abdominal pain (1.5 ug/kg): 1
- Serious adverse event: Acute myocardial infarction (1.5 ug/kg): 1
- Serious adverse event: Anorexia (1.5 ug/kg): 1
- Serious adverse event: Atrial fibrillation (1.5 ug/kg): 1
- Serious adverse event: Blood and lymphatic system disorders (1.5 ug/kg): 2
- Serious adverse event: Blood creatinine increased (1.5 ug/kg): 0
- Serious adverse event: Cardiac disorders (1.5 ug/kg): 2
- Serious adverse event: Cardiac failure (1.5 ug/kg): 1
- Serious adverse event: Dehydration (1.5 ug/kg): 0
- Serious adverse event: Dyspnoea (1.5 ug/kg): 0
- Serious adverse event: Fatigue (1.5 ug/kg): 1
- Serious adverse event: Febrile neutropenia (1.5 ug/kg): 0
- Serious adverse event: Gastrointestinal disorders (1.5 ug/kg): 2
- Serious adverse event: General disorders and administration site conditions (1.5 ug/kg): 2
- Serious adverse event: Hyponatraemia (1.5 ug/kg): 0
- Serious adverse event: Investigations (1.5 ug/kg): 0
- Serious adverse event: Lung abscess (1.5 ug/kg): 1
- Serious adverse event: Metabolism and nutrition disorders (1.5 ug/kg): 1
- Serious adverse event: Nausea (1.5 ug/kg): 1
- Serious adverse event: Neutropenia (1.5 ug/kg): 1
- Serious adverse event: Pain (1.5 ug/kg): 1
- Serious adverse event: Pyrexia (1.5 ug/kg): 1
- Serious adverse event: Respiratory failure (1.5 ug/kg): 1
- Serious adverse event: Respiratory, thoracic and mediastinal disorders (1.5 ug/kg): 1
- Serious adverse event: Thrombocythaemia (1.5 ug/kg): 1
- Serious adverse event: Thrombocytopenia (1.5 ug/kg): 0
- Serious adverse event: Vomiting (1.5 ug/kg): 0
- Total no. subjects WITH ADVERSE EVENTS (1.5 ug/kg): 12
- Total no. subjects WITH SERIOUS ADVERSE EVENTS (1.5 ug/kg): 5
- Adverse event: Abdominal pain (2.25 ug/kg): 1
- Adverse event: Acute myocardial infarction (2.25 ug/kg): 0
- Adverse event: Alanine aminotransferase increased (2.25 ug/kg): 0
- Adverse event: Alopecia (2.25 ug/kg): 3
- Adverse event: Anemia (2.25 ug/kg): 2
- Adverse event: Anorexia (2.25 ug/kg): 0
- Adverse event: Anxiety (2.25 ug/kg): 0
- Adverse event: Arthralgia (2.25 ug/kg): 0
- Adverse event: Aspartate aminotransferase increased (2.25 ug/kg): 0
- Adverse event: Atrial fibrillation (2.25 ug/kg): 0
- Adverse event: Azotaemia (2.25 ug/kg): 1
- Adverse event: Blood and lymphatic system disorders (2.25 ug/kg): 6
- Adverse event: Blood creatinine increased (2.25 ug/kg): 1
- Adverse event: C-reactive protein increased (2.25 ug/kg): 0
- Adverse event: Cancer pain (2.25 ug/kg): 0
- Adverse event: Cardiac disorders (2.25 ug/kg): 0
- Adverse event: Cardiac failure (2.25 ug/kg): 0
- Adverse event: Chills (2.25 ug/kg): 1
- Adverse event: Confusional state (2.25 ug/kg): 1
- Adverse event: Constipation (2.25 ug/kg): 2
- Adverse event: Cough (2.25 ug/kg): 2
- Adverse event: Dehydration (2.25 ug/kg): 1
- Adverse event: Dermatitis acneiform (2.25 ug/kg): 0
- Adverse event: Diabetes mellitus non-insulin-dependent (2.25 ug/kg): 0
- Adverse event: Diarrhea (2.25 ug/kg): 1
- Adverse event: Dizziness (2.25 ug/kg): 2
- Adverse event: Dry skin (2.25 ug/kg): 0
- Adverse event: Dyspepsia (2.25 ug/kg): 0
- Adverse event: Dyspnoea (2.25 ug/kg): 1
- Adverse event: Ear and labyrinth disorders (2.25 ug/kg): 0
- Adverse event: Epistaxis (2.25 ug/kg): 0
- Adverse event: Eructation (2.25 ug/kg): 1
- Adverse event: Fatigue (2.25 ug/kg): 1
- Adverse event: Febrile neutropenia (2.25 ug/kg): 1
- Adverse event: Folliculitis (2.25 ug/kg): 0
- Adverse event: Gastrointestinal disorders (2.25 ug/kg): 7
- Adverse event: General disorders and administration site conditions (2.25 ug/kg): 3
- Adverse event: General physical health deterioration (2.25 ug/kg): 1
- Adverse event: Haematocrit decreased (2.25 ug/kg): 1
- Adverse event: Headache (2.25 ug/kg): 1
- Adverse event: Hemorrhoids (2.25 ug/kg): 0
- Adverse event: Hepatobiliary disorders (2.25 ug/kg): 1
- Adverse event: Hiccups (2.25 ug/kg): 1
- Adverse event: Hyperbilirubinaemia (2.25 ug/kg): 1
- Adverse event: Hypersensitivity (2.25 ug/kg): 0
- Adverse event: Hypertension (2.25 ug/kg): 2
- Adverse event: Hypoalbuminaemia (2.25 ug/kg): 1
- Adverse event: Hypocalcaemia (2.25 ug/kg): 0
- Adverse event: Hypokalaemia (2.25 ug/kg): 1
- Adverse event: Hypomagnesaemia (2.25 ug/kg): 1
- Adverse event: Hyponatraemia (2.25 ug/kg): 2
- Adverse event: Hypophosphataemia (2.25 ug/kg): 0
- Adverse event: Immune system disorders (2.25 ug/kg): 0
- Adverse event: Insomnia (2.25 ug/kg): 1
- Adverse event: Investigations (2.25 ug/kg): 2
- Adverse event: Leukocytosis (2.25 ug/kg): 0
- Adverse event: Leukopenia (2.25 ug/kg): 3
- Adverse event: Lung abscess (2.25 ug/kg): 0
- Adverse event: Lymphopenia (2.25 ug/kg): 0
- Adverse event: Metabolism and nutrition disorders (2.25 ug/kg): 2
- Adverse event: Mucosal inflammation (2.25 ug/kg): 0
